Values of other authors as cited in publication PMC5861163 (European Journal of Nutrition, 2017).

Tested on: human faecal microbiota
Design: method as in PMID 26471074
Settings: after 24 h of fermentation in vitro

| Compound | degraded by the human faecal microbiota [%] |
| --- | --- |
| O=C(/C=C/c1ccc(O)cc1)CC(=O)/C=C/c1ccc(O)cc1 [bisdemethoxycurcumin] | ≤ 87 |
| demethoxycurcumin | ≤ 61 |
